Test results from patent EP0355039A2, “Methods and means for controlling the stability of proteins” (priority 1988, dated 1990).

Experiments:
Assay type in all cases: biochemical
[1] = target: T1, Actinoplanes missouriensis (DSM 43046) D-glucose isomerase (D-xylose isomerase, EC 5.3.1.5) EcoAmi(DSM) GI, wild type (WT-GI) (Actinoplanes missouriensis, UniProt P12851); experiment: Glucose isomerase catalytic parameters (D-sorbitol dehydrogenase coupled assay for D-xylose; cysteine-carbazole method for D-glucose)
T1 construct: made in house; host or cells: E. coli K514
T1 sequence (P12851 whole entry): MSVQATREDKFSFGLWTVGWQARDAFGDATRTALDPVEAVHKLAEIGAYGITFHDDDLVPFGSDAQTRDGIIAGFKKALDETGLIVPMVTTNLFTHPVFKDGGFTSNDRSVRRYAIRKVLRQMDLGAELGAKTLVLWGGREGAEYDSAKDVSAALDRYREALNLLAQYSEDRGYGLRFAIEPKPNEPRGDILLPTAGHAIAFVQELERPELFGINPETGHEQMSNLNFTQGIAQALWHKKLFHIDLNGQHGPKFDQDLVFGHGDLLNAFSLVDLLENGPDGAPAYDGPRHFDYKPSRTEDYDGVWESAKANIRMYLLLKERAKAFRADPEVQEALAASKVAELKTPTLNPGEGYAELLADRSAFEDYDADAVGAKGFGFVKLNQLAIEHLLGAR
Description: (§1) The enzymatic activity of glucose isomerase was assayed as described below (1 unit of enzymatic activity produces 1.0 micromole of product -D-xylulose or D-fructose- per minute; therefore, specific activity -spa- is expressed as units per mg of GI enzyme).
(§2) In the D-Sorbitol Dehydrogenase Coupled Assay, enzymatic determination of D-xylulose was performed at 35°C as previously described (Kersters-Hilderson et al., 1987) in 50mM triethanolamine, pH 7.5, 10mM MgSO₄, and 0.1 M xylose, in the presence of ∼ 2 x 10⁻⁸ M D-sorbitol dehydrogenase (L-iditol : NAD oxidoreductase, EC 1.1.1.14), and 0.15mM NADH, except that the incubation buffer also included 1mM ethylenebis(oxyethylenenitrilo)tetraacetic acid (EGTA). Glucose isomerase final concentration in this assay was about 2.5 x 10⁻³ mg/ml, and precisely determined as described above.
(§3) With glucose as a substrate, GI activity can be assayed by measuring the amount of D-fructose produced during the isomerization reaction using the cysteine-carbazole method which is based on the reaction of ketosugars with carbazole in acids to yield a purple product (Dische and Borenfreund, 1951).

[2] = target: T2, Actinoplanes missouriensis (DSM 43046) D-glucose isomerase EcoAmi(DSM) GI mutant K253Q (Lys-253 to Gln) (Actinoplanes missouriensis, UniProt P12851, K253Q)
T2 construct: made in house; host or cells: E. coli K514
T2 sequence (P12851 whole entry K253Q): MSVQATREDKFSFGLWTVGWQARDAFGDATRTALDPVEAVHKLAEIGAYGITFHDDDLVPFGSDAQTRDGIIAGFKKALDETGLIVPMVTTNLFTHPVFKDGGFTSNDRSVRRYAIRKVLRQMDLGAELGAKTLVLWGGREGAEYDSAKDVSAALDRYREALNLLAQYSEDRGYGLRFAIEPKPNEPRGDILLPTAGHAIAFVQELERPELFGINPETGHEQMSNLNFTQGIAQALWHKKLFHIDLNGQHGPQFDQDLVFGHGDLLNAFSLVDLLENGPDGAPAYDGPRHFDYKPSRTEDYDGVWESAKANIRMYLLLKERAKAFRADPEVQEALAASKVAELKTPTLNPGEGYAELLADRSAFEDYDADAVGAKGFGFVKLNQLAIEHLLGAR
Description: as §1, §2, §3

[3] = target: T3, Actinoplanes missouriensis (DSM 43046) D-glucose isomerase EcoAmi(DSM) GI mutant K253R (Lys-253 to Arg) (Actinoplanes missouriensis, UniProt P12851, K253R)
T3 construct: made in house; host or cells: E. coli K514
T3 sequence (P12851 whole entry K253R): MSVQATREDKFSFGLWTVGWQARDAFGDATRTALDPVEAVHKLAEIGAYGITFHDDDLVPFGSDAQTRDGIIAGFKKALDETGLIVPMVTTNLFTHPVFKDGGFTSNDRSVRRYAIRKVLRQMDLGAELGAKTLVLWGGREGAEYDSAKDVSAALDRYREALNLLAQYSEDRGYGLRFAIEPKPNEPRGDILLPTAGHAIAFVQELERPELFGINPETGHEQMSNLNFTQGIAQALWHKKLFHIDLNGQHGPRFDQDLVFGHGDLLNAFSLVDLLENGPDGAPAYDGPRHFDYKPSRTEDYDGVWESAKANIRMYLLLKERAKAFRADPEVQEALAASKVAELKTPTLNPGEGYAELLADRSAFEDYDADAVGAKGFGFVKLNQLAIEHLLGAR
Description: as §1, §2, §3

[4] = D-xylose as substrate, coupled assay, 35°C, 50mM triethanolamine pH 7.5, 10mM MgSO4

Substance	Vmax (Glucose) ([1]; D-glucose as substrate)	Vmax (Glucose) ([2]; D-glucose as substrate)	Vmax (Glucose) ([3]; D-glucose as substrate)	Km [1, 4] [mM]	Vmax (Xylose) [1, 4]	Km [2, 4] [mM]	Vmax (Xylose) [2, 4]	Km [3, 4] [mM]	Vmax (Xylose) [3, 4]
D-glucose	30.6 units per mg of enzyme	29.0 units per mg of enzyme	27.2 units per mg of enzyme						
D-xylose				4.8	24.2 units per mg of enzyme	4.4	15.1 units per mg of enzyme	5.3	24.6 units per mg of enzyme
